From the kinase profiling compilation of Christmann-Franck et al. (2016)

Columns and labels:
Assay in all cases: radiometric filter-binding kinase assay
HIPK1 (human) = HIPK1 (human) (UniProt Q86Z02)
GCK (human) = GCK (human) (UniProt Q12851)
CHEK1 (human) = CHEK1 (human) (UniProt O14757)
TTK (human) = TTK (human) (UniProt P33981)
PRKCZ (human) = PRKCZ (human) (UniProt Q05513)
FLT1 (human) = FLT1 (human) (UniProt P17948)
[1] = test system: AKT2 (human), P31751 [S474D]
MELK (human) = MELK (human) (UniProt Q14680)
TAOK1 (human) = TAOK1 (human) (UniProt Q7L7X3)
TAOK1 (human), sequence (Q7L7X3 whole entry, looked up): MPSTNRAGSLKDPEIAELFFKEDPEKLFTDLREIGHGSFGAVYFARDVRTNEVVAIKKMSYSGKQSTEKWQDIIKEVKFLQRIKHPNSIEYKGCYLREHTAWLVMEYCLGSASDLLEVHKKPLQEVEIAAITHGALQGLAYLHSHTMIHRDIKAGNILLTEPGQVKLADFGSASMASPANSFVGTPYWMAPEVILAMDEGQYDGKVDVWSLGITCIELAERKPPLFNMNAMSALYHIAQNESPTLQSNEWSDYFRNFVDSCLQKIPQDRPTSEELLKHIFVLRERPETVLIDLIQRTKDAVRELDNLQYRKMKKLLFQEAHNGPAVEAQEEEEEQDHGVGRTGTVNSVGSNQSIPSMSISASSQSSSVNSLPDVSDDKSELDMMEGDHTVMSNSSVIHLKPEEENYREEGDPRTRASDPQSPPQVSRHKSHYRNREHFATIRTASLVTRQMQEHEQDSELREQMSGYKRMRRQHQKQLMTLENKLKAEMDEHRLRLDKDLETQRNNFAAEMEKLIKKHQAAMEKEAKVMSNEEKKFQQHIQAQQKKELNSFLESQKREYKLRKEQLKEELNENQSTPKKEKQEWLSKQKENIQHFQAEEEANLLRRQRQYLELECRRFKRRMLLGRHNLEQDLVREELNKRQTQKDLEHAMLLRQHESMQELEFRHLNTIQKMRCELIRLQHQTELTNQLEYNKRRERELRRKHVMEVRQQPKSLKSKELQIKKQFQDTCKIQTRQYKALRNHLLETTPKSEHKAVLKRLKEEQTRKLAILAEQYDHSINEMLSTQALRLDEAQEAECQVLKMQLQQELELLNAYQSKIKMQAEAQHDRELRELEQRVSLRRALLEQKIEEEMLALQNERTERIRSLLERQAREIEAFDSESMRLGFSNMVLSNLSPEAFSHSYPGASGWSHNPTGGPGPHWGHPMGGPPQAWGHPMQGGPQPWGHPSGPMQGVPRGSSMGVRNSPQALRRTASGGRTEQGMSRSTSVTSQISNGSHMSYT

EEF2K (human) = EEF2K (human) (UniProt O00418)
EPHB1 (human) = EPHB1 (human) (UniProt P54762)
AURKA (human) = AURKA (human) (UniProt O14965)
PKN2 (human) = PKN2 (human) (UniProt Q16513)
MYLK (human) = MYLK (human) (UniProt Q15746)
MAP3K9 (human) = MAP3K9 (human) (UniProt P80192)
MAPK10 (human) = MAPK10 (human) (UniProt P53779)
MAP3K1 (human) = MAP3K1 (human) (UniProt Q13233)
MAP3K5 (human) = MAP3K5 (human) (UniProt Q99683)
PAK6 (human) = PAK6 (human) (UniProt Q9NQU5)
MAPK13 (human) = MAPK13 (human) (UniProt O15264)
MAPK13 (human), sequence (O15264 whole entry, looked up): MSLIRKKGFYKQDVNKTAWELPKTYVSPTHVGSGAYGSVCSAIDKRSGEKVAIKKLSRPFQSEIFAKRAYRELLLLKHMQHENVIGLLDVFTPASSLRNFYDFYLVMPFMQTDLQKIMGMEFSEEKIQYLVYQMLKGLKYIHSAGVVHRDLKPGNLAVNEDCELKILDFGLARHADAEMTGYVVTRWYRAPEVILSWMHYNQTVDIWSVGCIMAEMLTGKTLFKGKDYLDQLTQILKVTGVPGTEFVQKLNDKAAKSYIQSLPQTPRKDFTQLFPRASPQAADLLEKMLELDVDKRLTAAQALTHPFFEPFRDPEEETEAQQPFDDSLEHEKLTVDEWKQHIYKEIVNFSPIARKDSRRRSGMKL

MAP2K2 (human) = MAP2K2 (human) (UniProt P36507)
MAPK9 (human) = MAPK9 (human) (UniProt P45984)
CSNK1D (human) = CSNK1D (human) (UniProt P48730)
CSNK1D (human), sequence (P48730 whole entry, looked up): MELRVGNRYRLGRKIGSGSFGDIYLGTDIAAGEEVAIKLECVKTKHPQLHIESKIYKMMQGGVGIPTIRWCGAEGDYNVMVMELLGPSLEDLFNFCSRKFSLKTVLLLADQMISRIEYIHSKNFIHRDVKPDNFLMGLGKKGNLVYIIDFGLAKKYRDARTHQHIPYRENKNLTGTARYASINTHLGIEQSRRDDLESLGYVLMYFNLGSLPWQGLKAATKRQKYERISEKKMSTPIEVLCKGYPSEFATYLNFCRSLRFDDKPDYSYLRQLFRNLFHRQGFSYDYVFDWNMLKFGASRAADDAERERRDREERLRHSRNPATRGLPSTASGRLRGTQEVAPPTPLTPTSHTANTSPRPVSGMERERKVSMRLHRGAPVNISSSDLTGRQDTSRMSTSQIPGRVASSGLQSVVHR

FGFR1 (human) = FGFR1 (human) (UniProt P11362)
SRC (human) = SRC (human) (UniProt P12931)
MARK4 (human) = MARK4 (human) (UniProt Q96L34)
MARK4 (human), sequence (Q96L34 whole entry, looked up): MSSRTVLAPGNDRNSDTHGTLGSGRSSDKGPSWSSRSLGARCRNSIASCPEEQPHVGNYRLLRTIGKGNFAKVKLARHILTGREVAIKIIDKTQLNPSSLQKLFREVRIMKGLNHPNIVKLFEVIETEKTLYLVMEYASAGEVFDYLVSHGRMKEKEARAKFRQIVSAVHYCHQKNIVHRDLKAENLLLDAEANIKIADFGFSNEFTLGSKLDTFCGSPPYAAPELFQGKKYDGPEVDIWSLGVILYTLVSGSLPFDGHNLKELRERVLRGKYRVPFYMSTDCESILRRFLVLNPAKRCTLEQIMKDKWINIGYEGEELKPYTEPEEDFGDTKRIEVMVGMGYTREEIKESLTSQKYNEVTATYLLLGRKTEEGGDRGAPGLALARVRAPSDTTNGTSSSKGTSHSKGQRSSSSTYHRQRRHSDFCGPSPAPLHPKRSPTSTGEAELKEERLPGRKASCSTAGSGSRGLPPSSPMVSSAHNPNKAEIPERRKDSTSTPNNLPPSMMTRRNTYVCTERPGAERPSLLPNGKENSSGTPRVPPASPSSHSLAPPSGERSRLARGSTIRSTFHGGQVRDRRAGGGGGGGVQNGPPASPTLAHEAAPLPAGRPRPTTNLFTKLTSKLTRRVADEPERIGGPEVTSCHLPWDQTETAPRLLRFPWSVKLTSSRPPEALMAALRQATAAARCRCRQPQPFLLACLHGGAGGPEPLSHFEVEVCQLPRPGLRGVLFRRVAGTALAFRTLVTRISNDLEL

[2] = target: STK11 CAB39 STRADA (human) (UniProt Q9Y376+Q7RTN6+Q15831)
YES1 (human) = YES1 (human) (UniProt P07947)
YES1 (human), sequence (P07947 whole entry, looked up): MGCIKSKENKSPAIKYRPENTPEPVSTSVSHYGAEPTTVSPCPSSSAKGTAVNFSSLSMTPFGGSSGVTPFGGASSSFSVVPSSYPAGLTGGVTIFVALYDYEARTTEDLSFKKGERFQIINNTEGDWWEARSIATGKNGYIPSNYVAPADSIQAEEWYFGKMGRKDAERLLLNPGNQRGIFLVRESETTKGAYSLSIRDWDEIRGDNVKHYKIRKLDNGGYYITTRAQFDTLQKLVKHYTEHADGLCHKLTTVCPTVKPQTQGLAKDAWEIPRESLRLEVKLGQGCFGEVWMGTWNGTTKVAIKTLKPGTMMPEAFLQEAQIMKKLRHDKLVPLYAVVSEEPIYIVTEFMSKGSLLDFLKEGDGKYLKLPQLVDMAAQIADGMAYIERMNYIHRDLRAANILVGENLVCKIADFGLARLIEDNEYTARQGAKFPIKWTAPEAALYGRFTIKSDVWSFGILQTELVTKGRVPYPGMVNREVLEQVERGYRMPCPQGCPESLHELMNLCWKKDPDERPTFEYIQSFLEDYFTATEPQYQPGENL

GSK3B (human) = GSK3B (human) (UniProt P49841)
EPHB4 (human) = EPHB4 (human) (UniProt P54760)
[3] = test system: PAK2 (human), Q13177 [T402E]
MAPK1 (human) = MAPK1 (human) (UniProt P28482)
SYK (human) = SYK (human) (UniProt P43405)
AURKB (human) = AURKB (human) (UniProt Q96GD4)
AURKB (human), sequence (Q96GD4 whole entry, looked up): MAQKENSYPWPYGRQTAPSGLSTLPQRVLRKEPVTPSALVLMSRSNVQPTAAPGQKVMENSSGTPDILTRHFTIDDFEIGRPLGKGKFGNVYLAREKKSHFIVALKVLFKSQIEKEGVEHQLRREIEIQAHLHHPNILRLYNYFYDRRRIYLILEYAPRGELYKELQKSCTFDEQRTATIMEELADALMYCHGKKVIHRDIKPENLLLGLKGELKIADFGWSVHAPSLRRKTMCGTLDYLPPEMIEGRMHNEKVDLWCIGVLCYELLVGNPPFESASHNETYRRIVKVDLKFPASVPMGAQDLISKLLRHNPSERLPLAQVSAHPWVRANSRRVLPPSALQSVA

HIPK2 (human) = HIPK2 (human) (UniProt Q9H2X6); conditions: compound 10.0 µM
IGF1R (human) = IGF1R (human) (UniProt P08069); conditions: compound 10.0 µM

TTK (human), sequence (P33981 whole entry, looked up): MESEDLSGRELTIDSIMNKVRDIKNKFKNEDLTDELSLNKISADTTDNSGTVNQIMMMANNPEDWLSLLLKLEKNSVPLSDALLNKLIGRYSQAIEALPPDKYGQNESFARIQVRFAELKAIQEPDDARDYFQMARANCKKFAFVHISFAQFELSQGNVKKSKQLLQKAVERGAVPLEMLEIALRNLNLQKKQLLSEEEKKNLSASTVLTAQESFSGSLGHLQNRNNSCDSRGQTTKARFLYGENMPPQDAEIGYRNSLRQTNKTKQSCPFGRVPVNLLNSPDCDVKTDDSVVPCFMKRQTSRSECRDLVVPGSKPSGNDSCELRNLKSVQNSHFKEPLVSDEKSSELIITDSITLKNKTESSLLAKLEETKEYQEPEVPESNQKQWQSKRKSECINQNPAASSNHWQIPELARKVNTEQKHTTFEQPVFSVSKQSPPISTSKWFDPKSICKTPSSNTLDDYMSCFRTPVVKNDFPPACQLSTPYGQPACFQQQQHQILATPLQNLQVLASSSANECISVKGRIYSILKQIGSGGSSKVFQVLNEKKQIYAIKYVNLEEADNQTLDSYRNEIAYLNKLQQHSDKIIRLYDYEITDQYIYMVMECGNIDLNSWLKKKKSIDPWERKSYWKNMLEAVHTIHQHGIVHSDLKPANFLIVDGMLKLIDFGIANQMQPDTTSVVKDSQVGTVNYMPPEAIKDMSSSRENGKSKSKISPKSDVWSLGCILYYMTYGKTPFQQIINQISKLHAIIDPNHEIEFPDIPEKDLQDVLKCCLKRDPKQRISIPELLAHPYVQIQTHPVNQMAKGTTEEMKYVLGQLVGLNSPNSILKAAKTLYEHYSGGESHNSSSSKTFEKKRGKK
PRKCZ (human), sequence (Q05513 whole entry, looked up): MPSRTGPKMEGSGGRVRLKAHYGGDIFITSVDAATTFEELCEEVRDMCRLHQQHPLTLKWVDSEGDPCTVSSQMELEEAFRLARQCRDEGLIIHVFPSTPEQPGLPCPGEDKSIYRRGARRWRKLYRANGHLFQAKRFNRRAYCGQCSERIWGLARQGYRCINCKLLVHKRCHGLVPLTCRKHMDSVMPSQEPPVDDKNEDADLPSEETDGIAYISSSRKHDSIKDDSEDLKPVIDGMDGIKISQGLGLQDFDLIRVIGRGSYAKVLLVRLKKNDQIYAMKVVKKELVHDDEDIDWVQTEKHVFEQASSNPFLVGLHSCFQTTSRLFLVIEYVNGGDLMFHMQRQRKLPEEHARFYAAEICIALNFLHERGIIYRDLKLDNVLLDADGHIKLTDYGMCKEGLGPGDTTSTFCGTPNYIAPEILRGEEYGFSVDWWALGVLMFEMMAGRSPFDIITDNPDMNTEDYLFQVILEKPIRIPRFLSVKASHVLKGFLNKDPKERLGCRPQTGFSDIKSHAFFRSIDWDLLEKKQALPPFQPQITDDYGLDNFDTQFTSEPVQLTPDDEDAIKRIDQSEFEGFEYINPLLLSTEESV

SMILES: COc1ccc(N(C(=O)Nc2c(C)cccc2C)c2cc(Nc3ccc(N4CCN(C)CC4)cc3)ncn2)c(OC)c1
- residual activity (HIPK1 (human); compound 0.01 µM): 69%
- residual activity (HIPK1 (human); compound 0.1 µM): 60%
- residual activity (HIPK1 (human); compound 1.0 µM): 56%
- residual activity (GCK (human); compound 0.01 µM): 103%
- residual activity (GCK (human); compound 0.1 µM): 72%
- residual activity (GCK (human); compound 1.0 µM): 21%
- residual activity (CHEK1 (human); compound 0.01 µM): 95%
- residual activity (CHEK1 (human); compound 0.1 µM): 100%
- residual activity (CHEK1 (human); compound 1.0 µM): 86%
- residual activity (TTK (human); compound 0.01 µM): 100%
- residual activity (TTK (human); compound 0.1 µM): 92%
- residual activity (TTK (human); compound 1.0 µM): 75%
- residual activity (PRKCZ (human); compound 0.01 µM): 97%
- residual activity (PRKCZ (human); compound 0.1 µM): 104%
- residual activity (PRKCZ (human); compound 1.0 µM): 102%
- residual activity (FLT1 (human); compound 0.01 µM): 95%
- residual activity (FLT1 (human); compound 0.1 µM): 64%
- residual activity (FLT1 (human); compound 1.0 µM): 15%
- residual activity ([1]; compound 0.01 µM): 83%
- residual activity ([1]; compound 0.1 µM): 83%
- residual activity ([1]; compound 1.0 µM): 75%
- residual activity (MELK (human); compound 0.01 µM): 105%
- residual activity (MELK (human); compound 0.1 µM): 93%
- residual activity (MELK (human); compound 1.0 µM): 71%
- residual activity (TAOK1 (human); compound 0.01 µM): 85%
- residual activity (TAOK1 (human); compound 0.1 µM): 69%
- residual activity (TAOK1 (human); compound 1.0 µM): 33%
- residual activity (EEF2K (human); compound 0.1 µM): 108%
- residual activity (EEF2K (human); compound 1.0 µM): 89%
- residual activity (EPHB1 (human); compound 0.01 µM): 62%
- residual activity (EPHB1 (human); compound 0.1 µM): 49%
- residual activity (EPHB1 (human); compound 1.0 µM): 2%
- residual activity (AURKA (human); compound 0.01 µM): 98%
- residual activity (AURKA (human); compound 0.1 µM): 91%
- residual activity (AURKA (human); compound 1.0 µM): 70%
- residual activity (PKN2 (human); compound 0.1 µM): 99%
- residual activity (PKN2 (human); compound 1.0 µM): 90%
- residual activity (MYLK (human); compound 0.01 µM): 99%
- residual activity (MYLK (human); compound 0.1 µM): 89%
- residual activity (MYLK (human); compound 1.0 µM): 91%
- residual activity (MAP3K9 (human); compound 0.01 µM): 101%
- residual activity (MAP3K9 (human); compound 0.1 µM): 97%
- residual activity (MAP3K9 (human); compound 1.0 µM): 42%
- residual activity (MAPK10 (human); compound 0.01 µM): 93%
- residual activity (MAPK10 (human); compound 0.1 µM): 77%
- residual activity (MAPK10 (human); compound 1.0 µM): 38%
- residual activity (MAP3K1 (human); compound 0.01 µM): 94%
- residual activity (MAP3K5 (human); compound 0.01 µM): 110%
- residual activity (MAP3K5 (human); compound 0.1 µM): 119%
- residual activity (PAK6 (human); compound 0.01 µM): 94%
- residual activity (PAK6 (human); compound 0.1 µM): 101%
- residual activity (PAK6 (human); compound 1.0 µM): 88%
- residual activity (MAPK13 (human); compound 0.01 µM): 102%
- residual activity (MAPK13 (human); compound 0.1 µM): 97%
- residual activity (MAPK13 (human); compound 1.0 µM): 98%
- residual activity (MAP2K2 (human); compound 0.01 µM): 101%
- residual activity (MAP2K2 (human); compound 0.1 µM): 96%
- residual activity (MAP2K2 (human); compound 1.0 µM): 85%
- residual activity (MAPK9 (human); compound 0.01 µM): 103%
- residual activity (MAPK9 (human); compound 0.1 µM): 90%
- residual activity (MAPK9 (human); compound 1.0 µM): 21%
- residual activity (CSNK1D (human); compound 0.01 µM): 89%
- residual activity (CSNK1D (human); compound 0.1 µM): 85%
- residual activity (CSNK1D (human); compound 1.0 µM): 79%
- residual activity (FGFR1 (human); compound 0.01 µM): 102%
- residual activity (FGFR1 (human); compound 0.1 µM): 34%
- residual activity (FGFR1 (human); compound 1.0 µM): 2%
- residual activity (SRC (human); compound 0.01 µM): 45%
- residual activity (SRC (human); compound 0.1 µM): 9%
- residual activity (SRC (human); compound 1.0 µM): 3%
- residual activity (MARK4 (human); compound 0.01 µM): 120%
- residual activity (MARK4 (human); compound 0.1 µM): 101%
- residual activity (MARK4 (human); compound 1.0 µM): 67%
- residual activity ([2]; compound 0.01 µM): 108%
- residual activity ([2]; compound 0.1 µM): 106%
- residual activity ([2]; compound 1.0 µM): 96%
- residual activity (YES1 (human); compound 0.01 µM): 34%
- residual activity (YES1 (human); compound 0.1 µM): 11%
- residual activity (YES1 (human); compound 1.0 µM): 8%
- residual activity (GSK3B (human); compound 1.0 µM): 88%
- residual activity (EPHB4 (human); compound 0.01 µM): 110%
- residual activity (EPHB4 (human); compound 0.1 µM): 80%
- residual activity (EPHB4 (human); compound 1.0 µM): 5%
- residual activity ([3]; compound 0.01 µM): 87%
- residual activity ([3]; compound 0.1 µM): 59%
- residual activity ([3]; compound 1.0 µM): 18%
- residual activity (MAPK1 (human); compound 0.01 µM): 103%
- residual activity (MAPK1 (human); compound 0.1 µM): 110%
- residual activity (MAPK1 (human); compound 1.0 µM): 109%
- residual activity (SYK (human); compound 0.01 µM): 112%
- residual activity (SYK (human); compound 0.1 µM): 104%
- residual activity (SYK (human); compound 1.0 µM): 100%
- residual activity (AURKB (human); compound 0.01 µM): 93%
- residual activity (AURKB (human); compound 0.1 µM): 92%
- residual activity (AURKB (human); compound 1.0 µM): 91%

SMILES: O=S(=O)(c1ccc(F)c2nonc12)N1CCN(c2ncc(C(F)(F)F)cc2Cl)CC1
- residual activity (HIPK2 (human)): 97%
- residual activity (HIPK1 (human); compound 10.0 µM): 94%
- residual activity (GCK (human); compound 10.0 µM): 80%
- residual activity (CHEK1 (human); compound 10.0 µM): 96%
- residual activity (TTK (human); compound 10.0 µM): 80%
- residual activity (PRKCZ (human); compound 10.0 µM): 94%
- residual activity (FLT1 (human); compound 10.0 µM): 78%
- residual activity ([1]; compound 10.0 µM): 84%
- residual activity (MELK (human); compound 10.0 µM): 107%
- residual activity (TAOK1 (human); compound 10.0 µM): 98%
- residual activity (EEF2K (human); compound 10.0 µM): 79%
- residual activity (EPHB1 (human); compound 10.0 µM): 117%
- residual activity (AURKA (human); compound 10.0 µM): 99%
- residual activity (IGF1R (human)): 93%
- residual activity (PKN2 (human); compound 10.0 µM): 69%
- residual activity (MYLK (human); compound 10.0 µM): 112%
- residual activity (MAP3K9 (human); compound 10.0 µM): 108%
- residual activity (MAPK10 (human); compound 10.0 µM): 93%
- residual activity (MAP3K1 (human); compound 10.0 µM): 85%
- residual activity (MAP3K5 (human); compound 10.0 µM): 101%
- residual activity (PAK6 (human); compound 10.0 µM): 109%
- residual activity (MAPK13 (human); compound 10.0 µM): 85%
- residual activity (MAP2K2 (human); compound 10.0 µM): 99%
- residual activity (MAPK9 (human); compound 10.0 µM): 87%
- residual activity (CSNK1D (human); compound 10.0 µM): 79%
- residual activity (FGFR1 (human); compound 10.0 µM): 106%
- residual activity (SRC (human); compound 10.0 µM): 111%
- residual activity (MARK4 (human); compound 10.0 µM): 85%
- residual activity ([2]; compound 10.0 µM): 97%
- residual activity (YES1 (human); compound 10.0 µM): 105%
- residual activity (GSK3B (human); compound 10.0 µM): 85%
- residual activity ([3]; compound 10.0 µM): 98%
- residual activity (MAPK1 (human); compound 10.0 µM): 90%
- residual activity (SYK (human); compound 10.0 µM): 94%
- residual activity (AURKB (human); compound 10.0 µM): 96%
